Common to all, as to assay type: cell-based
The test system of assay [1] is Glucose uptake in MCF-7 cells. Put plainly: Radioactive glucose uptake in MCF-7 cells. Conditions: Homo sapiens, MCF7, 3H-2DG uptake, 20 mins. Here is the method: Example 157: Radioactive Glucose Uptake in MCF-7 Cells
Assay Protocol • 1. Seed approximately 12,000 MCF-7 cells cultured without insulin per well in 96-well plates (BIOCOAT, #356690) and let the cells sit in hood for 30 min. (Cell culture medium: DMEM+10% FBS). • 2. Put the cell culture plates in TC incubator (5% CO2, 37° C.) and incubate overnight. • 3. Take out the cell plates and wash with prewarmed KRH buffer (37° C.) three times using BioTek plate washer. (KRH buffer preparation: 136 mM NaCl, 4.7 mM KCl, 1.25 mM MgCl2, 1.2 mM CaCl2, 20 mM HEPES, 0.1 mg/ml sodium pyruvate, 0.1% BSA, pH 7.4). • 4. Compound preparation and treatment: • a) Add 12 ul compound stock in 100% DMSO to the first column of Echo LDV plate • b) Serially dilute the compound solution in 100% DMSO (4 uL+8 uL DMSO) using Bravo for 9 doses • c) Dispense 350 nL compounds using Echo to the working plate • d) i) Without compound preincubation condition, dispense 116 uL KRH buffer containing tritiated 2-deoxy-D-glucose (3H-2DG) and 2-deoxy-D-glucose (2DG) to the working plate and mix. • ii. With compound preincubation condition, dispense 110 uL KRH buffer only to the working plates and mix • e) Keep the compound working plate at 37° C. incubator until use • 5. Discard the KRH buffer (cells were kept in KRH buffer for 10-15 min before 2-DG addition) and transfer 100 uL compound working solution out to the cell culture plate using Bravo. Incubate for 20 mins at 37° C. (2DG final at 0.2 mM, 3H-2DG at 10 uCi/mL). • 6. Add prewarmed 50 uL KRH buffer (37° C.) containing 60 mM cold 2DG to the wells to stop the 2DG uptake using Multidrop combi • 7. Wash the cells with prewarmed PBS three times using BioTek plate washer • 8. Add 50 uL lysis buffer (0.1 M NaOH) into the assay plate to lyse the cells using Bravo and shake at 800 rpm for 30 min. • 9. Mix and transfer 20 uL lysate to a new white plate (Corning, #3610) and add 200 uL MicroScint-20 using Bravo • 10. Shake the plate at 1000 rpm for 30 min and count in a MicroBeta plate reader.

For assay [2], the system named is pS6K1 in MCF7 (measure of mTORC1 activity). Put plainly: AlphaLISA Ultra pS6K1 assay. Conditions: Homo sapiens, MCF7, 2 h, MCF-7 cells, 2 hours compound incubation. In outline: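 MCF7 cells, refreshed medium 2 h, treated with compound 2 h at 0.5% DMSO final, then lysed. Phospho-S6K1 in lysates detected by AlphaLISA Ultra (acceptor beads 2 h, donor beads 2 h), read as Alpha signal on a multimode reader.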

Assay [3] relates to pAKT in MCF7 (measure of mTORC2 activity). Put plainly: AlphaLISA Ultra pAKT assay. Conditions: Homo sapiens, MCF7, 2 h, MCF-7 cells, 2 hours compound incubation. In outline: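 MCF7 cells, 16,000-20,000 per well, treated with compound for 2 h at 0.5% final DMSO, then lysed. Phospho-AKT, as a readout of mTORC2 activity, measured by AlphaLISA Ultra with acceptor beads and then donor beads, 2 h each.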

One may read the IC50 as the concentration needed to halve the response being measured. In the case of `Cc1c(CN2CCN(c3ccccc3C#N)CC2)cc(C(=O)N2CCN(c3ccc(F)cn3)CC2)n1C` [Example I-63], the IC50 was 10 to 1000 nM in assay [1], 10 to 1000 nM in assay [2] and above 300 nM in assay [3].
For `Cc1c(CN2CCN(c3ccccc3Cl)CC2)cc(C(=O)N2CCN(c3ccc(F)cn3)CC2)n1C` [Example I-72], the IC50 in assay [1] was 10 to 1000 nM; in assay [2], 10 to 1000 nM; in assay [3], above 300 nM.
`Cc1c(CN2CCN(c3ccccc3Cl)CC2)cc(C(=O)N2CCn3c(cc4ccccc43)C2)n1C` [Example I-76, (4-((4-(2-chlorophenyl)piperazin-1-yl)methyl)-1,5-dimethyl-1H-pyrrol-2-yl)(3,4-dihydropyrazino[1,2-a]indol-2(1H)-yl)methanone]: the IC50 was above 3000 nM in assay [1], 1000 to 3000 nM in assay [2] and above 5000 nM in assay [3].
Turning to `Cc1c(CN2CCN(c3ccccc3Cl)CC2)cc(C(=O)N2CCN(c3cccc(F)c3)C[C@@H]2C)n1C` [Example I-75, (S)-(4-((4-(2-chlorophenyl)piperazin-1-yl)methyl)-1,5-dimethyl-1H-pyrrol-2-yl)(4-(3-fluorophenyl)-2-methylpiperazin-1-yl)methanone 2,2,2-trifluoroacetate], the IC50 is 1000 to 3000 nM in assay [2] and above 5000 nM in assay [3].
In the case of `Cc1c(CN2CCN(c3ccccc3Cl)CC2)cc(C(=O)N2CCn3nc(-c4ccccc4)cc3C2)n1C` [Example I-81, (4-((4-(2-Chlorophenyl)piperazin-1-yl)methyl)-1,5-dimethyl-1H-pyrrol-2-yl)(2-phenyl-6,7-dihydropyrazolo[1,5-a]pyrazin-5(4H)-yl)methanone 2,2,2-trifluoroacetate], the IC50 is 1000 to 3000 nM in assay [2] and above 10000 nM in assay [3].
On the same counts, the results for `Cc1c(CN2CCN(c3ccccc3Cl)CC2)cc(C(=O)N2CCN(c3cccc(F)c3)CC2)n1C` [Example I-108, (4-((4-(2-Chlorophenyl)piperazin-1-yl)methyl)-1,5-dimethyl-1H-pyrrol-2-yl)(4-(3-fluorophenyl)piperazin-1-yl)methanone] are 10 to 1000 nM and above 1000 nM.
Take `Cc1c(CN2CCN(c3ccccc3Cl)CC2)cc(C(=O)N2CCN(c3cccc(Cl)c3)CC2)n1C` [Example I-118, (4-(3-Chlorophenyl)piperazin-1-yl)(4-((4-(2-chlorophenyl)piperazin-1-yl)methyl)-1,5-dimethyl-1H-pyrrol-2-yl)methanone]: the IC50 in assay [2] is 10 to 1000 nM; in assay [3], above 3000 nM.
In the same order, the values of `Cc1c(CN2CCN(c3ccccc3C#N)CC2)cc(C(=O)N2CCN(c3ccc(C#N)cc3)CC2)n1C` [Example I-53] are 1000 to 3000 nM and above 10000 nM.
On the same counts, the results for `O=C(c1cc(CN2CCN(c3ccccc3Cl)CC2)cn1CCO)N1CCN(c2ccccc2)CC1` [Example I-142] are 1000 to 3000 nM and above 3000 nM.
Take `Cc1c(CN2CCN(c3ccccc3N=[N+]=[N-])CC2)cc(C(=O)N2CCN(c3ccccc3)CC2)n1C` [Example I-97, (4-((4-(2-azidophenyl)piperazin-1-yl)methyl)-1,5-dimethyl-1H-pyrrol-2-yl)(4-phenylpiperazin-1-yl)methanone]: the IC50 in assay [2] was 1000 to 3000 nM; in assay [3], above 5000 nM.
Consider `CC(c1cc(C(=O)N2CCN(c3ccccc3)CC2)n(C)c1)N1CCN(c2ccccc2Cl)CC1` (stereo not shown) [Example I-106, 1-(2-Chlorophenyl)-4-{1-[1-methyl-5-(4-phenylpiperazine-1-carbonyl)-1H-pyrrol-3-yl]ethyl}piperazine], for which the half-maximal inhibitory concentration (IC50) in assay [2] is 1000 to 3000 nM; in assay [3], above 3000 nM.

Values taken from patent US20190389843A1, “PYRROLE mTORC INHIBITORS AND USES THEREOF” (Navitor Pharmaceuticals, Inc., priority 2016, published 2019).
